Assay results from patent US20190046469A1, “COMPOSITIONS AND METHODS FOR TREATING MOOD DISORDERS OR SKIN DISEASE OR DAMAGE” (priority 2012, published 2019).

Tests used:
[1] = system: OXT (Homo sapiens oxytocin/neurophysin I prepropeptide mRNA, NM_000915); assay: Full thickness tissue DNA microarray screening, OXT gene expression; assay type: cell-based
Text: (§1) DNA microarrays were used to screen xanthohumol for changes in the expression of thousands of different genes. DNA microarrays are extremely powerful tools that allow users to analyze changes in gene expression by monitoring changes in the messenger ribonucleic acid (“mRNA”) of hundreds to thousands of genes in a single experiment. All cells function by using their genes to make protein products. This process starts by making an mRNA copy of the gene through a process called transcription. The mRNA copy is then translated into a protein that plays a functional role within the cell or the cell's environment. Since the process of gene expression is highly regulated, the amount of mRNA can be a good indicator of the level of activity for a specific gene. With the introduction of DNA microarrays, researchers can now rapidly obtain a much more global view of what is happening inside of a cell since the results of one or two array experiments can potentially generate data on changes in gene expression across the entire known human genome.
(§2) This would result in a ratio of 1. If a treatment increases the expression of a gene, then the median intensity of the feature would be greater in the scan from the red laser than the green, resulting in a ration that is greater than 1. […] These broader ranges are a more conservative judging criterion and account for possible sources of variation in fluorescence intensity that are not associated with the treatment.
(§3) In addition to the information on active ingredients and raw materials that the DNA microarray can provide, the arrays can be used to better characterize the mechanisms of action related to certain therapeutic categories. The array data also allows the verification that a gene of interest is expressed in a certain model before running an experiment. The following tables provide the data based on the ratio of means after 50 μL of a xanthohumol liquid formulation with a concentration of 5 mg/ml xanthohumol was used in the following experiment. RNA was isolated from the tissues for subsequent analysis via DNA microarrays.

[2] = system: OXTR (Homo sapiens oxytocin receptor mRNA, NM_000916); assay: Full thickness tissue DNA microarray screening, OXTR gene expression; assay type: cell-based
Text: as §1, §2, §3

[3] = 50 μL of xanthohumol liquid formulation, 5 mg/ml, full thickness tissue, >=1.3 up-regulated, <=0.7 down-regulated
[4] = 50 μL of xanthohumol liquid formulation, 5 mg/ml, green laser scan
[5] = 50 μL of xanthohumol liquid formulation, 5 mg/ml, red laser scan (treated)
[6] = ratio of means above 1.3 = up-regulated

COc1cc(O)c(CC=C(C)C)c(O)c1C(=O)/C=C/c1ccc(O)cc1 [xanthohumol]
Ratio of Means (OXT) [1, 3]: 2.488 | F532 Median (OXT) [1, 4]: 78 | F635 Median (OXT) [1, 5]: 171 | regulation of OXT gene (in words) [1, 6]: significantly up-regulated | Ratio of Means (OXTR) [2, 3]: 3.5 | F532 Median (OXTR) [2, 4]: 43 | F635 Median (OXTR) [2, 5]: 53 | up-regulation of OXTR ([2]; DNA microarray): greater than 50% | regulation of OXTR gene (in words) [2, 6]: significantly up-regulated
